Measurements: patent publication US5830885A, “Antiproliferative vitamin D3 hybrids” (The Johns Hopkins University, priority 1996, dated 1998)
Entries after “also recorded” stand apart in the source; their conditions may differ.

What was measured:
HL-60 cells = conditions: relative to 1,25D3; cited from earlier work
[1] = tested on: Human lymphoma cells U 937; conditions: relative to calcitriol = 1; cited from earlier work
[2] = tested on: Human lymphoma cells U 937; conditions: relative to calcitriol = 1; cited from earlier work; remark: listed apart in the source
Lewis rats = conditions: relative to calcitriol = 1; cited from earlier work
calf thymus VDR = biological target: T1, calf thymus VDR (Bos taurus, UniProt Q28037); test: VDR binding assay, displacement of [^3 H]-1,25(OH)2 D3 from VDR; conditions: for Amount Bound (amount that results in 50% displacement of [^3 H]-1,25(OH)2 D3 from VDR): Table 3, calf thymus VDR
T1 construct: from the calf thymus VDR; from tissue; host or cells: calf thymus
T1 sequence (Q28037 1-426): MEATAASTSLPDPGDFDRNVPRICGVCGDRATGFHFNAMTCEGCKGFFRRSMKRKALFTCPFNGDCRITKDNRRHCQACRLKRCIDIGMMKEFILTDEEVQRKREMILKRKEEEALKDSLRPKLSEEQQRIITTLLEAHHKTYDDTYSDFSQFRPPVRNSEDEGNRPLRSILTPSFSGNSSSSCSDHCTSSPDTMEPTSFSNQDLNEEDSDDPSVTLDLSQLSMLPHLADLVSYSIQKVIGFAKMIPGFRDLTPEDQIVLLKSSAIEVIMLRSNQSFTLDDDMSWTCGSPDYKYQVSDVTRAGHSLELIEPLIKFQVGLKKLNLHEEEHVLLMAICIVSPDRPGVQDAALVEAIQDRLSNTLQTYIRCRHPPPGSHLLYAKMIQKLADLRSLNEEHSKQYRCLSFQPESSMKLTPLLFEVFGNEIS
Description: The VDR binding assay was performed according to the procedure of Reinhardt, T. A., Horst, R. L., Orf, J. W., Hollis, B. W., J. Clin. Endocrin. Metab., 58: 91-98 (1984), the entire contents of which are hereby incorporated herein by reference.

keratinocyte = test: Dose-response effects on keratinocyte proliferation (FIGS. 3, 4, 9, 10); assay type: cell-based; conditions: cell numbers at 0 and 96 hours
Description: N0 represents the number of cells at zero hours and N1 represents the number of cells at 96 hours.

[3] = tested on: RWLeu-4 human CML cell line; test: Proliferation of RWLeu-4 human chronic myelogenous leukemic cells; assay type: cell-based; conditions: even at 50 nM; FIG. 5
Excerpt: MCW-II5-y-A is compound YA and MCW-II5-y-B is compound YB.

[4] = tested on: human breast cancer cell lines MDA 468 and SKBr 3; test: Thymidine incorporation by human breast cancer cell lines; assay type: cell-based; conditions: human breast cancer cells; FIGS. 6A and 6B
Excerpt: (§1) FIGS. 6A and 6B show a comparison of the effects of 1,25(OH)2 D3 (filled squares), YA (filled circles) and YB (filled triangles) on thymidine incorporation by human breast cancer cell lines MDA 468 and SKBr 3.

calcium channels = test: Calcium channel opening assay; assay type: cell-based
U 937 cancer cells [5] = test: Inhibition of cell proliferation in U 937 cancer cells (Table 5); assay type: cell-based, human; conditions: for IC50: Homo sapiens, U 937 cells; for inhibiting cell proliferation (in words): U 937, YB vs 1,25(OH)2 D3, YA up to 10^-7 M
U 937 cancer cells [6] = test: Induction of cell differentiation in U 937 cancer cells (Table 5); assay type: cell-based, human
U 937 cancer cells [7] = test: Viability of U 937 cancer cells (Table 5); assay type: cell-based; conditions: Homo sapiens, at 10^-7 M, read-out: Viability
[8] = Solubility in organic solvents; assay type: physicochemical; conditions: methylene chloride, chloroform, methanol; for YA/YB also EtOAc, acetone
cell proliferation [9] = test: Inhibition of proliferation (ratings of Table 2); assay type: cell-based; conditions: Table 2 rating
cell differentiation = test: Induction of differentiation (ratings of Table 2); assay type: cell-based; conditions: for differentiation inducing activity: compared with calcitriol
MDA 468 cells = test: Thymidine incorporation by MDA 468 human breast cancer cells; assay type: cell-based; conditions: FIGS. 6A and 6B
Excerpt: as §1

cell proliferation [10] = test: Anti-proliferative activity (summary statements); assay type: cell-based; conditions: compared with calcitriol or in general words

SMILES | Amount Bound (amount that results in 50% displacement of [^3 H]-1,25(OH)2 D3 from VDR) (calf thymus VDR) | effect on keratinocyte proliferation (keratinocyte) | Average peak shift compared to control (calcium channels; 0.05 nM) | Average peak shift compared to control (calcium channels; 0.5 nM) | Average peak shift compared to control (calcium channels; 5 nM) | Average peak shift compared to control (calcium channels; 50 nM) | IC50 (U 937 cancer cells [5]) | inhibiting cell proliferation (in words) (U 937 cancer cells [5]) | viability at 0.1 µM (U 937 cancer cells [7]) | solubility in organic solvents [8] | differentiation inducing activity (cell differentiation) | further results
C=C1/C(=C\C=C2/CCC[C@]3(C)[C@@H]([C@@H](C)OCCCC(O)(CC)CC)CC[C@@H]23)C[C@@H](O)C[C@@H]1O [KH-1060] | – | – | – | – | – | – | – | – | – | – | – | times as effective as 1,25D3 in the induction of leukemic cell (HL-60) differentiation (HL-60 cells): 133 times; Relative Potency, Inhibition of Proliferation [1]: 31,000; Relative Potency, Induction of Differentiation [2]: 100,000; Relative Potency, Calcemic Effects (Lewis rats): 1.3
C=C1/C(=C\C=C2/CCC[C@]3(C)[C@@H]([C@@H](C)OCCCC(O)(CC)CC)CC[C@@H]23)C[C@H](O)C[C@H]1CO [YB, 22-oxa-1-(hydroxymethyl)-26-(hydroxydiethyl) vitamin D3] | 29.5 ng | comparable to that of calcitriol | 3.6 ± 2.2 mV | 13.2 ± 2.8 mV | 16.6 ± 2.8 mV | 18.4 ± 2.1 mV | 60 nM | about one third as active | 99% | sparingly soluble | comparable to that of calcitriol | times less strongly bound to VDR than 1,25(OH)2 D3 (calf thymus VDR; relative to 1,25(OH)2 D3): about 1300 times; anti-proliferative effect on RWLeu-4 cells [3]: comparable to or slightly greater than that of calcitriol; inhibition of growth (suppression of thymidine incorporation) [4]: very comparable to calcitriol; inducing cell differentiation (in words) (U 937 cancer cells [6]; at a concentration of 10^-8 M): effective in inducing cell differentiation; Inhibition of Proliferation (rating) (cell proliferation [9]): 1; Induction of Differentiation (rating) (cell differentiation; Table 2 rating): 1
C=C1/C(=C\C=C2/CCC[C@]3(C)[C@@H]([C@@H](C)OCCCC(O)(CC)CC)CC[C@@H]23)C[C@@H](O)C[C@@H]1CO [YA, 22-oxa-1-(hydroxymethyl)-26-(hydroxydiethyl) vitamin D3] | 2200 ng | not effective for inhibition of proliferation | 1.0 ± 0.1 mV | 10.8 ± 1.5 mV | 16.1 ± 4.1 mV | 18.6 ± 3.3 mV | > 100 nM | ineffective | 99% | sparingly soluble | relatively ineffective in inducing differentiation | VDR binding (in words) (calf thymus VDR): even weaker binding for VDR than YB; also recorded: low VDR binding; inhibition of growth (suppression of thymidine incorporation) (MDA 468 cells): appears to have no effect; inducing cell differentiation (in words) (U 937 cancer cells [6]; at 10^-7 M): inactive; anti-proliferative activity (cell proliferation [10]): relatively ineffective in inducing differentiation or inhibiting proliferation
